Test results from patent publication US20070014721A1, “Hydrazide conjugates as imaging agents” (priority 2005, published 2007).

Experiments:
[1] = system: Rabbit plaque aorta or normal rabbit aorta; assay: Ex vivo blood vessel binding assay; design: species or system New Zealand white rabbits; conditions: radiolabeled compound incubated with rabbit aorta (0.5 cm) in phosphate buffered saline for 2 hours at 37° C; bound compound as percentage of the incubated compound
Text: Normal aorta was obtained from New Zealand white rabbits. Aorta bearing atherosclerotic plaque was obtained from New Zealand white rabbits balloon stripped along the abdominal aorta and placed on a high fat diet (0.5% cholesterol) for 16-22 weeks. Vascular injury was produced with a 3-F Fogarty catheter along the abdominal aorta and left iliofemoral artery. This procedure generates an accelerated complex lesion development with a lipid rich core covered by a fibrous cap in rabbits. Rabbit plaque aorta or normal rabbit aorta (0.5 cm) was incubated with 10 nCi of ^14C labeled compound or 1.5 μCi of ^99m Tc labeled compound or 0.135 μCi of ^111In labeled compound or 0.135 μCi of ^68Ga labeled compound or 0.135 µCi of ^153Gd labeled compound diluted in phosphate buffered saline (450 μL) for 2 hours at 37° C. The supernatant from this sample was collected and analyzed by HPLC to determine compound stability in presence of blood vessels. The blood vessel tissue was then washed with phosphate buffered saline (3×10 mL). Phosphate buffered saline (10 ml) was added to the tissue and incubated at 37° C. for 1 hour. The tissue was then washed with phosphate buffered saline (3×10 mL). The washed tissue was oxidized in a tissue oxidizer for C-14 labeled compounds. The counts in the oxidized tissue were determined on a beta counter. Blood vessels incubated with ^99m Tc labeled compound or ^111In labeled compound or ^68Ga labeled compound or ^153Gd labeled compound were counted on a gamma counter. The amount of compound bound to the tissue was determined as a percentage of the incubated compound. This was calculated using the following formula: [formula]

[2] = system: aorta of apolipoprotein E (apoE) knockout mouse; assay: In vivo ApoE mouse aorta uptake study; conditions: 60 min postinjection; for Aorta (% ID/g): ApoE mouse on high-fat diet 37-41 weeks, tail vein bolus; for Aorta/Blood Ratio: ApoE mouse, calculated from the % ID/g data
Protocol: Mice were fed a high-fat diet to accelerate plaque formation and compounds were tested in the mice between 37-41 weeks on diet. Test compounds were radiolabeled (^14C, ^99mTc, or ^111In as described above) and administered at 0.02-4.0 mCi/kg to anesthetized mice in a single, bolus injection via the tail vein. Blood samples were collected via the tail between 0-30 minutes postinjection for pharmacokinetic analysis and mice were euthanized by CO2 at 60 minutes for tissue harvesting. The aorta were flushed with saline through the left ventricle exiting via the femoral vein. The aorta were then removed from the heart to the renal bifurcation and additional tissue samples collected (blood, muscle, liver, kidney, heart, lung, spleen and innominate artery). All samples were weighed and assayed for radioactivity. Tissue uptake is expressed as percent of injected dose per gram of tissue (% ID/g). The aorta to blood ratios were calculated from the % ID/g data.

[3] = system: aorta of atherosclerotic rabbit model; assay: In vivo rabbit aorta uptake study, atherosclerotic (plaque) rabbit; conditions: 60 minutes postinjection; for Aorta/Blood (Plaque Rabbit): calculated from the % ID/g data; for Aorta Uptake, % ID/g (Plaque Rabbit): marginal ear vein bolus
Protocol: Atherosclerosis was induced in New Zealand White male rabbits (3 kg) with aortic balloon endothelial injury followed by feeding a 0.5% cholesterol diet for 22 weeks. Test compounds were radiolabeled(^14C, ^99mTc, or ^111In as described above) and administered at 0.02-1.0 mCi/kg to anesthetized rabbits in a single, bolus injection vis the marginal ear vein. Blood samples were collected from the central ear artery at 0, 2, 5, 7, 10, 15, 30, and 60 minutes post injection. Rabbits were euthanized at 60 minutes post injection for tissue harvesting (blood, muscle, bile, urine, kidney, liver, spleen, heart, lung, colon, small intestine, stomach, testes). Abdominal aorta (upper, middle, and lower) and left and right femoral arteries were collected. Both plaque bearing and non-plaque bearing rabbits were administered compounds to compare aorta uptake. All samples were weighed and assayed for radioactivity. Tissue uptake is expressed as percent of injected dose per gram of tissue (% ID/g). The aorta to blood ratios were calculated from the % ID/g data.

[4] = system: aorta of normal (non-plaque bearing) rabbit; assay: In vivo rabbit aorta uptake study, normal rabbit; design: species or system New Zealand White male rabbits; conditions: 60 minutes postinjection; for Aorta/Blood (Normal Rabbit): calculated from the % ID/g data; for Aorta Uptake, % ID/g (Normal Rabbit): marginal ear vein bolus
Text: All samples were weighed and assayed for radioactivity.

[5] = biological target: Aminopeptidase N (Homo sapiens, UniProt P15144); assay: Aminopeptidase N cleavage of test substrates; format: biochemical; conditions: Boc removed from N-terminus before assay; 0.5 mM test substrate, 0.02 U APN, 37° C, 25 minutes
Protocol: The test compounds were dissolved in 50:50 TFA:dichloromethane and allowed to stand at ambient temperature under nitrogen for 10 minutes to remove the Boc protecting group from the N-terminus amino acid. The solutions were concentrated and the resulting oily residue was dissolved in 50:50 acetonitrile:water and lyophilized. The resulting flocculent solids were used directly in the APN assay.
Aminopeptidase N cleaves amino acids at the N-terminus of proteins and peptides attached to another amino acid. A stock solution of test substrates was prepared in 100% DMSO at a concentration of 8 mM. The stock solution (4.7 μL) was added to buffer (50 mM Hepes/pH 7.5, 10 mM CaCl2, 0.1% Brij) for a final concentration of 0.5 mM test substrate in the reaction. To this reaction solution 0.02 U of the enzyme (APN) was added, the solution was mixed, and immediately 30 μL of the mix was transferred to HPLC vials containing acetic acid (15 μL) for t=0 minutes measurement. The rest of the mix in the test tube was incubated at 37° C. for 25 minutes. At the 25 minutes time point 30 μL of the mix was transferred to an HPLC vial containing acetic acid (15 μl) for the t=25 minute measurement. The test substrates and products were separated by reversed phase HPLC on a Zorbax SB-C18 column (4.6×150 mm, 5 micron) using a water:acetonitrile gradient containing 0.1% TFA at a flow rate of 1.0 mL/min and with UV detection. The peak areas were integrated and the substrate peak area was used to determine rate constant k in the following equation: K={(% hydrolyzed/100)*[S]}/[E]*[time] where S=test substrate concentration in μmoles
E=aminopeptidase N concentration in units/ml
K=μmoles of substrate hydrolyzed/minute/unit enzyme

Sequence of Aminopeptidase N (P15144 whole entry, species assumed): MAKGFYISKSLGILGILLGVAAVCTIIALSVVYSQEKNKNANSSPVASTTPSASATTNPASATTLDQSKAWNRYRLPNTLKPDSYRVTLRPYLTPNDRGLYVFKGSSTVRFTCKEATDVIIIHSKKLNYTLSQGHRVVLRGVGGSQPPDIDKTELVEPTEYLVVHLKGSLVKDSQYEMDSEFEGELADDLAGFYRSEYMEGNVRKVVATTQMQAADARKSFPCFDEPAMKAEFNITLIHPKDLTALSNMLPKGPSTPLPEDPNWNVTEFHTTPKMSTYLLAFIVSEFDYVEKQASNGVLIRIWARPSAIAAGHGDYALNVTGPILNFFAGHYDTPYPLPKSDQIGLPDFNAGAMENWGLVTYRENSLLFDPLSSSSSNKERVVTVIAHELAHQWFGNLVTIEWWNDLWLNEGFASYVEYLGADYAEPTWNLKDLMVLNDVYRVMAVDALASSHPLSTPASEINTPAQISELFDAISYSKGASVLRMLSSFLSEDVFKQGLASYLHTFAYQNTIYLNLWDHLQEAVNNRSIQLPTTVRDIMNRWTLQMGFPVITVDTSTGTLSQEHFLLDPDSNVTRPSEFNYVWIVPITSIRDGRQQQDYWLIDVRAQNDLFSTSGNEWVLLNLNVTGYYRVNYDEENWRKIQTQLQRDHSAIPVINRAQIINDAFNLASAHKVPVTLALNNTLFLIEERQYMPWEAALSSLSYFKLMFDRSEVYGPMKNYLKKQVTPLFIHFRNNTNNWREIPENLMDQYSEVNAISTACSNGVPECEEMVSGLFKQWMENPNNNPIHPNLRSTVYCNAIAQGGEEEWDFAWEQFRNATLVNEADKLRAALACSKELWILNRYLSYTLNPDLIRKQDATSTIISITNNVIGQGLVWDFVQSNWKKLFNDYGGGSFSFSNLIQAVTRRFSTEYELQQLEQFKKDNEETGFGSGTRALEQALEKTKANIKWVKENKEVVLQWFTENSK

Molecule	Tissue Binding % [1]	Aorta (% ID/g) [2]	Aorta/Blood Ratio [2]	Aorta/Blood (Plaque Rabbit) [3]	Aorta Uptake, % ID/g (Plaque Rabbit) [3]	Aorta/Blood (Normal Rabbit) [4]	Aorta Uptake, % ID/g (Normal Rabbit) [4]	Rate of APN Hydrolysis of Test Substrates [5]
H-d-Leu-Apah-DTPA [Example 159]	10.10%	9.5 % ID/g	3.0	4.08	0.083 % ID/g			
H-d-Leu-Apph-DTPA [Example 171]	16.56%	6.7 % ID/g	8.8	2.89	0.168 % ID/g	4.49	0.143 % ID/g	
H-d-Trp-Ambh-DTPA [Example 208]	14.91%	14.8 % ID/g	8.7			5.58	0.135 % ID/g	
H-d-Leu-Apah-Ahx-DTPA [Example 176]	25.21%	12.2 % ID/g	13.3			4.95	0.123 % ID/g	
CC(C)C[C@H](NC(=O)OC(C)(C)C)C(=O)N[C@H](CC(C)C)C(=O)NNC(=O)CCCCCN.O=C(O)C(F)(F)F [Example 80, N-((2R)-2-{(2S)-2-[(tert-Butoxy)carbonylamino]-4-methylpentanoylamino}-4-methylpentanoylamino)-6-aminohexanamide, Trifluoroacetic Acid Salt]								0.00 μmoles/minute/U
Boc-d-Leu-Ahxh-H [Example 120]	14.09%	8.9 % ID/g	2.2	3.98	0.088 % ID/g			
H-d-Leu-Ahxh-Apa-DOTA [Example 215]	11.54%			1.31	0.092 % ID/g			
H-d-Phe-Apah-DTPA [Example 164]	13.88%	8.2 % ID/g	7.5	3.56	0.085 % ID/g			
H-d-Hphe-Ambh-DTPA [Example 203]	17.96%	12.9 % ID/g	8.7	2.76	0.127 % ID/g	4.78	0.129 % ID/g	
Boc-d-Leu-Inph-H [Example 139]	18.36%	17.2 % ID/g	5.0	2.92	0.096 % ID/g			
H-d-Leu-Ahxh-DOTA [Example 155]	3.49%	5.1 % ID/g	2.0	1.67	0.080 % ID/g	2.21	0.065 % ID/g	
H-d-2-Nal-Ambh-DTPA [Example 212]	18.78%	12.6 % ID/g	10.8					
H-cLeu-Ahxh-DTPA [Example 188]	3.91%	2.8 % ID/g	2.2					
H-d-Phe(CF3)-Apah-DTPA [Example 177]	13.53%	7.9 % ID/g	8.7					
H-d-Trp-Apph-ETPA [Example 184]	13.08%	12.5 % ID/g	11.3					
H-d-1-Nal-Ambh-DTPA [Example 183]	24.41%	15.7 % ID/g	11.7			4.72	0.146 % ID/g	
H-d-Phe-Apph-DTPA [Example 174]	17.15%	8.7 % ID/g	11.0			5.42	0.111 % ID/g	
CC(C)C[C@H](NC(=O)OC(C)(C)C)C(=O)Nc1ccc(COC(=O)N[C@H](CC(C)C)C(=O)NNC(=O)CCCCCN)cc1.O=C(O)C(F)(F)F [Example 13, N-((2R)-2-{[(4-{(2S)-2-[(tert-Butoxy)carbonylamino]-4-methylpentanoylamino}phenyl)methoxy]carbonylamino}-4-methylpentanoylamino)-6-aminohexanamide, Trifluoroacetic Acid Salt]								0.33 μmoles/minute/U
H-d-Cys(Bzl)-Apph-DTPA [Example 181]	13.91%	9.8 % ID/g	7.3					
H-d-Val-Ahxh-DTPA [Example 191]	3.02%	5.3 % ID/g	1.5					
Boc-d-Leu-Ambh-H [Example 138]	21.11%	8.6 % ID/g	6.7					
Boc-d-Leu-N(Me)-NH-Ahx-NH2 [Example 126]	2.97%	1.3 % ID/g	0.6					
H-Aic-Ambh-DTPA [Example 207]	5.26%	3.8 % ID/g	2.1					
H-d-Bip-NHNH-DTPA [Example 162]	6.39%	7.1 % ID/g	4.7					
H-d-H2phe-Ambh-DTPA [Example 185]	10.64%	11.2 % ID/g	8.1					
H-d-Cys(Bzl)-Ahxh-DTPA [Example 167]	9.74%	8.0 % ID/g	4.9					
H-d-Cha-Ambh-DTPA [Example 196]	8.25%	9.8 % ID/g	7.8					
